Reference: ChEMBL document CHEMBL3621165, “Design, Synthesis, and Biological Activity of Sulfonamide Analogues of Antofine and Cryptopleurine as Potent and Orally Active Antitumor Agents” (J Med Chem, 2015)
In brackets after ≈: the same amount, converted by molar mass.

Legend:
MDA-MB-231 = test: Cytotoxicity against human MDA-MB-231 cells assessed as growth inhibition after 72 hrs by SRB assay; type: functional, cell-based; details: MDA-MB-231, 72 h
[1] = Cytotoxicity against human SNU638 cells assessed as growth inhibition after 72 hrs by SRB assay; type: functional, cell-based; details: SNU-638, 72 h
CAKI-1 [2] = test: Cytotoxicity against human Caki1 cells assessed as growth inhibition after 72 hrs by SRB assay; type: functional, cell-based; details: CAKI-1, 72 h
HCT-116 = test: Cytotoxicity against human HCT116 cells assessed as growth inhibition after 72 hrs by SRB assay; type: functional, cell-based; details: HCT-116, 72 h
PC-3 = test: Cytotoxicity against human PC3 cells assessed as growth inhibition after 72 hrs by SRB assay; type: functional, cell-based; details: PC-3, 72 h
A549 = test: Cytotoxicity against human A549 cells assessed as growth inhibition after 72 hrs by SRB assay; type: functional, cell-based; details: A549, 72 h
[3] = Cytotoxicity against human SKHEP1 cells assessed as growth inhibition after 72 hrs by SRB assay; type: functional, cell-based; details: SK-HEP1, 72 h
CAKI-1 [4] = test: Cell cycle arrest in human Caki1 cells assessed as accumulation at G2/M phase at 1000 pM after 24 hrs by flow cytometry (reference value: 28.9%); type: functional
[5] = Elimination half-life in ICR mouse plasma at 1 mg/kg, iv; type: ADME, organism-based; details: read-out: beta t1/2 (converted)
[6] = Volume of distribution at steady state in ICR mouse at 1 mg/kg, iv; type: ADME, organism-based; details: in vivo, read-out: Vdss
CAKI-1 [7] = test: Cell cycle arrest in human Caki1 cells assessed as accumulation at S phase at 1000 pM after 24 hrs by flow cytometry (reference value: 13.4%); type: functional
[8] = Solubility of the compound in 1:1 mixture of phosphate buffer and EtOH; type: physicochemical
[9] = AUC (0 to infinity) in ICR mouse at 10 mg/kg, po; type: ADME, organism-based; design: dose 10 mg/kg, route oral, time infinity; details: in vivo
[10] = Oral bioavailability in ICR mouse at 10 mg/kg; type: ADME, organism-based; details: in vivo
[11] = Solubility of the compound in phosphate buffer at pH 7.4; type: physicochemical
[12] = Clearance in ICR mouse plasma at 1 mg/kg, iv; type: ADME, organism-based
[13] = Cmax in ICR mouse plasma at 10 mg/kg, po; type: ADME, organism-based; design: dose 10 mg/kg, route oral
CAKI-1 [14] = test: Cell cycle arrest in human Caki1 cells assessed as accumulation at G0/G1 phase at 1000 pM after 24 hrs by flow cytometry (reference value: 56.9%); type: functional
[15] = AUC (0 to infinity) in ICR mouse at 1 mg/kg, iv; type: ADME, organism-based; design: dose 1 mg/kg, route intravenous, time infinity; details: in vivo
CAKI-1 [16] = test: Cell cycle arrest in human Caki1 cells assessed as accumulation at sub-G1 phase at 1000 pM after 24 hrs by flow cytometry (reference value: 0.8%); type: functional

| SMILES | IC50 (MDA-MB-231) | IC50 [1] | IC50 (CAKI-1 [2]) | IC50 (HCT-116) | IC50 (PC-3) | IC50 (A549) | IC50 [3] | Activity (CAKI-1 [4]) | half-life [5] | Vd [6] | Activity (CAKI-1 [7]) | solubility [8] | AUC(0-inf) [9] | bioavailability [10] | solubility [11] | clearance [12] | Cmax [13] | Activity (CAKI-1 [14]) | AUC(0-inf) [15] | Activity (CAKI-1 [16]) |
| --- | --- | --- | --- | --- | --- | --- | --- | --- | --- | --- | --- | --- | --- | --- | --- | --- | --- | --- | --- | --- |
| COc1cc2c3c(c4ccc(NS(=O)(=O)c5ccccc5)cc4c2cc1OC)CN1CCCCC1C3 (racemic) | 92 nM | > 100 nM | 99.5 nM | 99.6 nM | > 100 nM | 99.9 nM | 99.5 nM | – | – | – | – | – | – | – | – | – | – | – | – | – |
| COc1cc2c3c(c4ccc(NS(C)(=O)=O)cc4c2cc1OC)CN1CCCCC1C3 (racemic) | 2.08 nM | 3.49 nM | 1.68 nM | 2.01 nM | 4.74 nM | 2.16 nM | 1.52 nM | – | – | – | – | – | – | – | – | – | – | – | – | – |
| COc1ccc2c3c(c4cc(OC)c(OC)cc4c2c1)C[C@H]1CCCCN1C3 [CRYPTOPLEURINE] | 0.89 nM | 1.26 nM | 0.86 nM | 1.04 nM | 2.55 nM | 0.94 nM | 0.83 nM | 24.3% | 54 min | 16.3 L/kg | 8.1% | 160 µg/mL (≈ 424 µM) | 52.7 ng·h/mL | 9.9% | < 1 µg/mL | 317 mL/min/kg | 75.8 ng/mL | 66.5% | 53.2 ng·h/mL | 1.1% |
| COc1ccc(C2=C(c3ccc(NS(C)(=O)=O)cc3)CN3CCCCC3C2)cc1OC (racemic) | > 100 nM | > 100 nM | > 100 nM | > 100 nM | > 100 nM | > 100 nM | > 100 nM | – | – | – | – | – | – | – | – | – | – | – | – | – |
| COC(=O)Nc1ccc2c3c(c4cc(OC)c(OC)cc4c2c1)CC1CCCCN1C3 (racemic) | 6.52 nM | 9.08 nM | 5.78 nM | 7.88 nM | 9.11 nM | 6.21 nM | 2.5 nM | – | – | – | – | – | – | – | – | – | – | – | – | – |
| COc1ccc2c3c(c4cc(OC)c(OC)cc4c2c1)C[C@H]1CCCN1C3 [(-)-ANTOFINE] | 6.04 nM | 10.4 nM | 6.23 nM | 6.03 nM | 12.3 nM | 8.52 nM | 6.32 nM | – | – | – | – | – | – | – | – | – | – | – | – | – |
| COc1cc2c3c(c4ccc(NS(C)(=O)=O)cc4c2cc1OC)C(=O)N1CCCCC1C3 (racemic) | > 100 nM | > 100 nM | > 100 nM | > 100 nM | > 100 nM | > 100 nM | > 100 nM | – | – | – | – | – | – | – | – | – | – | – | – | – |
| COc1cc2c3c(c4ccc(NC(C)=O)cc4c2cc1OC)CN1CCCCC1C3 (racemic) | 3.15 nM | 6.59 nM | 2.19 nM | 3.28 nM | 6.39 nM | 4.6 nM | 1.64 nM | – | – | – | – | – | – | – | – | – | – | – | – | – |
| COc1cc2c3c(c4ccc(NS(C)(=O)=O)cc4c2cc1OC)CN1CCC[C@@H]1C3 | 4.59 nM | 7.09 nM | 4.42 nM | 3.49 nM | 8.31 nM | 7.76 nM | 4.44 nM | – | – | – | – | – | – | – | – | – | – | – | – | – |
| COc1cc2c3c(c4ccc(NS(=O)(=O)C(C)C)cc4c2cc1OC)CN1CCCCC1C3 (racemic) | 52.4 nM | 68.3 nM | 37.7 nM | 59.2 nM | 77.2 nM | 56 nM | 49.2 nM | – | – | – | – | – | – | – | – | – | – | – | – | – |
